EP4660182A1, “NAV1.7- AND/OR NAV1.8-INHIBITING ARYL PYRIDINE COMPOUNDS, PROCESSES FOR THE PREPARATION THEREOF, COMPOSITIONS, USES, METHODS FOR TREATMENT USING SAME, AND KITS” (Eurofarma Laboratórios S.A., priority 2023, dated 2024)

Key:
[1] = target: T1, human sodium channels Nav 1.8 (Homo sapiens, UniProt Q9Y5Y9); assay: Automated whole-cell voltage-clamp (ScreenPatch 384P) sodium current block, Nav 1.8; format: cell-based; conditions: CHO cells stably expressing human Nav 1.8; inactivation step -40 mV 8 s, test step 10 mV (TP1A); eight concentrations; exposure at least five minutes; room temperature; read-out: Nav1.8 IC50
T1 construct: expressed in transfected cells
T1 sequence (Q9Y5Y9 whole entry): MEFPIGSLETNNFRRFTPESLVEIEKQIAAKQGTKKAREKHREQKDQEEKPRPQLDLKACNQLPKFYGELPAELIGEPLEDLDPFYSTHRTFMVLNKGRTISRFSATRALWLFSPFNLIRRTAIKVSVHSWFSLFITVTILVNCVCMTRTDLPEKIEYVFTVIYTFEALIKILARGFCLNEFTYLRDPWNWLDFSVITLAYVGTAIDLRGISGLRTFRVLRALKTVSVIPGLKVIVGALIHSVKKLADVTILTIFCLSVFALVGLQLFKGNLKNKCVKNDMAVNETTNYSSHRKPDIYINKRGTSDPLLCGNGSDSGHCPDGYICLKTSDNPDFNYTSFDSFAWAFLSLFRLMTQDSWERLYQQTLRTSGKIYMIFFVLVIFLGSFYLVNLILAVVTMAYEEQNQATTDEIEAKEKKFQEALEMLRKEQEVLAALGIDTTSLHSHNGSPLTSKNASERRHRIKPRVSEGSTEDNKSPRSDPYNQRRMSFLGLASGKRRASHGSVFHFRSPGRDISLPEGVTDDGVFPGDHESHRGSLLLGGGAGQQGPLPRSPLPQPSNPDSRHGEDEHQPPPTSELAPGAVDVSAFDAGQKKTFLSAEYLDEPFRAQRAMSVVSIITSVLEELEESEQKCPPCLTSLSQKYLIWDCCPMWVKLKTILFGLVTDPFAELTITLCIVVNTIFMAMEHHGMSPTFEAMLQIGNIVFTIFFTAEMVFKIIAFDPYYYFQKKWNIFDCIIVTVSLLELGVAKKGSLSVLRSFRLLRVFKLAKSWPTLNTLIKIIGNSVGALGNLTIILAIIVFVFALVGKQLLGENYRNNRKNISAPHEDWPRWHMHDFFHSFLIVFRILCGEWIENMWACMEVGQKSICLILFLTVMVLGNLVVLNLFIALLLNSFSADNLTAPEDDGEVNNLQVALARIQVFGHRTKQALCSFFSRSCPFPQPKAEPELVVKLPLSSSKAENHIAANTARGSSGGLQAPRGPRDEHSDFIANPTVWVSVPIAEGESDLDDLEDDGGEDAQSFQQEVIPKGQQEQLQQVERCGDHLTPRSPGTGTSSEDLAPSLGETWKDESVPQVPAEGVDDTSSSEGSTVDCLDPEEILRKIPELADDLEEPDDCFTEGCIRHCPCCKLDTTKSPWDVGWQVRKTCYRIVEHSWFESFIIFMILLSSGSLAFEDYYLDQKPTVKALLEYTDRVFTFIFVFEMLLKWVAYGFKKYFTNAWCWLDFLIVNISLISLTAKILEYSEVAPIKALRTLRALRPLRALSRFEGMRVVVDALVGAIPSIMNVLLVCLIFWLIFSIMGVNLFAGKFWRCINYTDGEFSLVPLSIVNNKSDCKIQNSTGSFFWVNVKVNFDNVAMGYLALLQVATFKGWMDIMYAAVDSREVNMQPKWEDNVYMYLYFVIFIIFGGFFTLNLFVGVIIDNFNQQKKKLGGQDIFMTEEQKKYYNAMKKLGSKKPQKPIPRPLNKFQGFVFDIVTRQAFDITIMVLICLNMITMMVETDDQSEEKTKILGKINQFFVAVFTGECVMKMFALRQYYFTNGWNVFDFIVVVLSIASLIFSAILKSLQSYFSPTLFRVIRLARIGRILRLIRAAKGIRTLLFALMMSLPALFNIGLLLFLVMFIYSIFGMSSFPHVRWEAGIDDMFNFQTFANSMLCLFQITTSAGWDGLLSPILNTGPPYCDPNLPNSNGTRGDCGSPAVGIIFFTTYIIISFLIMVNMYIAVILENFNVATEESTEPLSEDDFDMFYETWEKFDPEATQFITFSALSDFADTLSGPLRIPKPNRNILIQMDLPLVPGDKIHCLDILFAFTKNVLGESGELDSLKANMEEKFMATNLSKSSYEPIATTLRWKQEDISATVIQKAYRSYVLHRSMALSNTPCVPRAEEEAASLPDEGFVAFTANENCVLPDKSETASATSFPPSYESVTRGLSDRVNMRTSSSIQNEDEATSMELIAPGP
Description: (§1) Biological assays were performed on Chinese hamster ovary (CHO) cells that express human sodium channels Nav 1.8 or Nav 1.7 in a stable manner.
(§2) The experimental protocol voltage-clamp using the whole cell configuration was established on the automated ScreenPatch® 384P platform (SP384PE, Nanion Technologies, Livingston, NJ) and the results were recorded with a Nanion 384-well Patch Clamp chip (NPC) (Nanion Technologies, Livingston, NJ).
(§3) Formula I compounds were diluted in eight concentrations in the extracellular solution composed of saline solution, buffered with HEPES (mM): NaCl, 137; KCl, 4; CaCl2, 3,8; MgCl2, 1; HEPES, 10; Glucose, 10; pH 7.4. The […], 50; CsF, 90; MgCl2, 5; EGTA, 5; HEPES, 10; pH 7.2. The duration of exposure of each compound with cells expressing Nav 1.7 or Nav 1.8 was at least five minutes and the assays were performed at room temperature.
(§4) The measurements of the sodium currents of Nav 1.8 and Nav 1.7 were obtained using the voltage protocol described below.
(§5) A holding voltage of -100 mV was established followed by an inactivation voltage step at -40 mV for 8 seconds, followed by a step of -100 mV for 20 ms, followed by a 20 ms step for 10 mV for Nav 1.8 or 0 mV for Nav 1.7 (TP1A) before returning to the holding voltage of -100 mV.
(§6) The protocol was repeated at a frequency of 0.05 Hz and the amplitude of the current was quantified throughout the recording of the TP1A phase. The variation in the amplitude of the peak current was evaluated according to the formula described below, after exposing the cells expressing the channels to each concentration of the different compounds: % Block = (1−(ITP1A,molecule/ITP1A,basal)×100%, [formula] wherein ITP1A,basal and ITP1A,molecule represent the peaks of sodium current input into TP1A before exposure to the compound and in the presence of the compound, respectively.
(§7) Data were obtained by nonlinear regression (nonlinear least squares) with XLfit for Excel (Microsoft, Redmond, WA).
(§8) The compounds were tested in at least one assay to obtain the value of CI50. For compounds that were tested in two or more assays, the results are described as the means of the CI50 values.

[2] = target: T2, human sodium channels Nav 1.7 (Homo sapiens, UniProt Q15858); assay: Automated whole-cell voltage-clamp (ScreenPatch 384P) sodium current block, Nav 1.7; format: cell-based; conditions: CHO cells stably expressing human Nav 1.7; inactivation step -40 mV 8 s, test step 0 mV (TP1A); eight concentrations; exposure at least five minutes; room temperature; read-out: Nav1.7 IC50
T2 construct: expressed in transfected cells
T2 sequence (Q15858 whole entry): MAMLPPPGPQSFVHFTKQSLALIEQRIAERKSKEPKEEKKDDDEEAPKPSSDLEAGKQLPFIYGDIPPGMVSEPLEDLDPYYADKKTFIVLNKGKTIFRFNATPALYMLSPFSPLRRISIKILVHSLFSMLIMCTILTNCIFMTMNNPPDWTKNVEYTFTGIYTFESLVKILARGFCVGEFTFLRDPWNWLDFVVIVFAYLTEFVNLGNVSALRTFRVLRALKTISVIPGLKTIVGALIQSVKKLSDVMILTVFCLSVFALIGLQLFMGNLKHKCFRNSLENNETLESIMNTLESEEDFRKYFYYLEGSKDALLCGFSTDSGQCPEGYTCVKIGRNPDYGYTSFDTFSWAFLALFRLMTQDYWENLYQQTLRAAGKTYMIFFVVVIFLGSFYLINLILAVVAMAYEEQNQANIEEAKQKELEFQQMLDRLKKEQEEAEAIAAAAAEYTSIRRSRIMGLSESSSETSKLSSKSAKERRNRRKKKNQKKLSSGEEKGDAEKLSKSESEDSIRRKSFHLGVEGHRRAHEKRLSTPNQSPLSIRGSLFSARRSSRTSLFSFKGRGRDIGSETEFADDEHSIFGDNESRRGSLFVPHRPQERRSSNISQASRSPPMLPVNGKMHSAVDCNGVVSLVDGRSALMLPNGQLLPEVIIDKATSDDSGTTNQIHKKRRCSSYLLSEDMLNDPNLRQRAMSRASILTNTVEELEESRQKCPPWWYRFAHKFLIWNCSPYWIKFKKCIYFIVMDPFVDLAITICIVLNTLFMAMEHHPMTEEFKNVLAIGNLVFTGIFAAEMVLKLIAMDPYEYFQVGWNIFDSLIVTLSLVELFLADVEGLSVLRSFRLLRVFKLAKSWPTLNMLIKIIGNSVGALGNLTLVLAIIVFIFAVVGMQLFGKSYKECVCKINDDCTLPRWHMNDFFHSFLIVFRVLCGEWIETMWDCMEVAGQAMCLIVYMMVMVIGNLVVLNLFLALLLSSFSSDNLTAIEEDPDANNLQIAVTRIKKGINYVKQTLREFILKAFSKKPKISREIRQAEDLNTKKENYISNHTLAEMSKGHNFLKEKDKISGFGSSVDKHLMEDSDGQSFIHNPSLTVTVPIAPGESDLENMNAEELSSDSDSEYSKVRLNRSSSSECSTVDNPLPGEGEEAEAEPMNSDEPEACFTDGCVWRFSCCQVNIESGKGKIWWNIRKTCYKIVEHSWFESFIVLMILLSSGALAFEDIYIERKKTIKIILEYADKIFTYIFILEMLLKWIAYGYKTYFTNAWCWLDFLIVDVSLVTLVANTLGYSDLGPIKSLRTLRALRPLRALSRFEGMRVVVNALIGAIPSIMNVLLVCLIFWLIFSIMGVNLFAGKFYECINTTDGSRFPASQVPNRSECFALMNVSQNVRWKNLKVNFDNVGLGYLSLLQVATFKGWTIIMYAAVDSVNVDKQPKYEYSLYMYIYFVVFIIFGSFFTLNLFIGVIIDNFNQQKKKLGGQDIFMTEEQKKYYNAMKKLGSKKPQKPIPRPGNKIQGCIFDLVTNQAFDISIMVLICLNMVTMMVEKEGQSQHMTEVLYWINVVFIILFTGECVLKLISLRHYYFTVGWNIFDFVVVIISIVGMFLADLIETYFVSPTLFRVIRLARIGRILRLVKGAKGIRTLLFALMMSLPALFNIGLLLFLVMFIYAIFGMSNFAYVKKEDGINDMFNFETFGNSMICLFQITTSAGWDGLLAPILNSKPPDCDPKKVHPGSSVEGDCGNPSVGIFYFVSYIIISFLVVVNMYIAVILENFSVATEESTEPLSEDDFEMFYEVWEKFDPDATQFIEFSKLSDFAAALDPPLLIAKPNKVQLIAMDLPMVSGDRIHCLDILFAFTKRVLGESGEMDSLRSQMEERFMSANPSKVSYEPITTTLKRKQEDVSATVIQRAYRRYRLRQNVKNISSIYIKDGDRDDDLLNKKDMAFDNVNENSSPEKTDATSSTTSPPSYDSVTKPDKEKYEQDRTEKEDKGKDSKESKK
Description: as §1, §2, §3, §4, §5, §6, §7, §8

Row | Structure (SMILES) | IC50 [1] [nM] | IC50 [2] [nM]
1 | COc1cnc(F)c(/C=N/NC(=O)c2cncc(-c3ccc(OCC4CNC4)nc3)n2)c1 [Compound 143, (E)-6-(6-(azetidin-3-ylmethoxy)pyridine-3-yl)-N'-((2-fluoro-5-methoxypyridine-3-yl)methylene)pyrazine-2-carbohydrazide] | > 1000 | > 1000
2 | COc1cnc(F)c(/C=N/NC(=O)c2cncc(-c3ccc(OC(F)F)nc3C)n2)c1 [Compound 159, (E)-6-(6-(difluoromethoxy)-2-methylpyridine-3-yl)-N'-((2-fluoro-5-methoxypyridine-3-yl)methylene)pyrazine-2-carbohydrazide] | < 500 | > 1000
3 | CCOc1ccc(-c2nc(C(=O)N/N=C/c3cccn3C)cnc2O)cn1 [Compound 69, (E)-6-(6-ethoxypyridine-3-yl)-5-hydroxy-N'-((1-methyl-1H-pyrrole-2-yl)methylene)pyrazine-2-carbohydrazide] | > 1000 | > 1000
4 | O=C(N/N=C/c1ccccn1)c1cncc(-c2ccc(OC(F)(F)F)nc2)n1 [Compound 84, (E)-N'-(pyridine-2-ylmethylene)-6-(6-(trifluoromethoxy)pyridine-3-yl)pyrazine-2-carbohydrazide] | > 1000 | > 1000
5 | CC(O)c1cncc(/C=N/NC(=O)c2cncc(-c3ccc(OC(F)F)nc3)n2)c1 (stereo not drawn) [Compound 111, (E)-6-(6-(difluoromethoxy)pyridine-3-yl)-N'-((5-(1-hydroxyethyl)pyridine-3-yl)methylene)pyrazine-2-carbohydrazide] | > 1000 | > 1000
6 | COc1cnc(F)c(/C=N/NC(=O)c2cncc(-c3ccc(OCCC4CNC4)nc3)n2)c1 [Compound 144, (E)-6-(6-(2-(azetidine-3-yl)ethoxy)pyridine-3-yl)-N'-((2-fluoro-5-methoxypyridine-3-yl)methylene)pyrazine-2-carbohydrazide] | > 1000 | > 1000
7 | COc1cnc(F)c(/C=N/NC(=O)c2cncc(-c3ccc(OC(F)F)nc3)c2)c1 [Compound 128, (E)-6'-(difluoromethoxy)-N'-((2-fluoro-5-methoxypyridine-3-yl)methylene)-[3,3'-bipyridine]-5-carbohydrazide] | > 1000 | > 1000
8 | COc1cc(O)c(F)c(/C=N/NC(=O)c2cncc(-c3ccc(OC(F)F)nc3)n2)c1 [Compound 119, (E)-6-(6-(difluoromethoxy)pyridine-3-yl)-N'-(2-fluoro-3-hydroxy-5-methoxybenzylidene)pyrazine-2-carbohydrazide] | 500 to 1000 | > 1000
9 | COc1cnc(F)c(/C=N/NC(=O)c2cncc(-c3ccc(O)nc3)n2)c1 [Compound 167, (E)-N'-((2-fluoro-5-methoxypyridine-3-yl)methylene)-6-(6-hydroxypyridine-3-yl) pyrazine-2-carbohydrazide] | > 1000 | > 1000
10 | CCOc1ccc(-c2cncc(C(=O)N/N=C/c3[nH]ccc3C#N)n2)cn1 [Compound 59, (E)-N'-((3-cyano-1H-pyrrole-2-yl)methylene)-6-(6-ethoxypyridine-3-yl)pyrazine-2-carbohydrazide] | > 1000 | > 1000
11 | COc1ccc(F)c(/C=N/NC(=O)c2cnc(O)c(-c3ccc(OC(F)(F)F)nc3)n2)c1 [Compound 98, (E)-N'-(2-fluoro-5-methoxybenzylidene)-5-hydroxy-6-(6-(trifluoromethoxy)pyridine-3-yl)pyrazine-2-carbohydrazide] | > 1000 | > 1000
12 | COc1ccc(O)c(/C=N/NC(=O)c2cncc(-c3ccc(OC(F)F)nc3)n2)c1 [Compound 120, (E)-6-(6-(difluoromethoxy)pyridine-3-yl)-N'-(2-hydroxy-5-methoxybenzylidene)pyrazine-2-carbohydrazide] | > 1000 | > 1000
13 | COc1ccc(F)c(/C=N/NC(=O)c2cncc(-c3ccc(OC(F)(F)F)nc3)n2)n1 [Compound 97, (E)-N'-((3-fluoro-6-methoxypyridine-2-yl)methylene)-6-(6-(trifluoromethoxy)pyridine-3-yl)pyrazine-2-carbohydrazide] | > 1000 | > 1000
14 | O=C(N/N=C/c1cccnc1)c1cncc(-c2ccc(OC(F)(F)F)nc2)n1 [Compound 86, (E)-N'-(pyridine-3-ylmethylene)-6-(6-(trifluoromethoxy)pyridine-3-yl)pyrazine-2-carbohydrazide] | > 1000 | > 1000

Second part, the molecule after the results:

Row | IC50 [1] [nM] | IC50 [2] [nM] | Structure (SMILES)
15 | > 1000 | > 1000 | CCOc1ccc(-c2cncc(C(=O)N/N=C/c3cc(OC4CN(C)C4)ccc3F)n2)cn1 [Compound 39, (E)-6-(6-ethoxypyridine-3-yl)-N'-(2-fluoro-5-((1-methylazetidine-3-yl)oxy)benzylidene) pyrazine-2-carbohydrazide]
16 | < 500 | > 1000 | [2H]C([2H])([2H])Oc1cnc(F)c(/C=N/NC(=O)c2cncc(-c3ccc(OCC)nc3)n2)c1 [Compound 171, (E)-6-(6-ethoxypyridine-3-yl)-N'-((2-fluoro-5-(methoxy-d3)pyridine-3-yl)methylene) pyrazine-2-carbohydrazide]
17 | < 500 | > 1000 | CCOc1ccc(F)c(/C=N/NC(=O)c2cncc(-c3ccc(OCC)nc3)n2)c1 [Compound 4, (E)-N'-(5-ethoxy-2-fluorobenzylidene)-6-(6-ethoxypyridine-3-yl)pyrazine-2-carbohydrazide]
18 | > 1000 | > 1000 | CCOc1ccc(-c2cnc(O)c(C(=O)N/N=C/c3cc(OC)ccc3F)n2)cn1 [Compound 68, (E)-6-(6-ethoxypyridine-3-yl)-N'-(2-fluoro-5-methoxybenzylidene)-3-hydroxypyrazine-2-carbohydrazide]
19 | 500 to 1000 | > 1000 | CCOc1ccc(-c2cncc(C(=O)N/N=C/c3[nH]ccc3C)n2)cn1 [Compound 56, (E)-6-(6-ethoxypyridine-3-yl)-N'-((3-methyl-1H-pyrrole-2-yl)methylene)pyrazine-2-carbohydrazide]
20 | < 500 | < 500 | CCOc1ccc(-c2cncc(C(=O)N/N=C/c3cc(OC(C)C)ccc3F)n2)cn1 [Compound 5, (E)-6-(6-ethoxypyridine-3-yl)-N'-(2-fluoro-5-isopropoxybenzylidene)pyrazine-2-carbohydrazide]
21 | > 1000 | > 1000 | CCOc1ccc(-c2cncc(C(=O)N/N=C/c3cc(OC)cnc3O)n2)cn1 [Compound 42, (E)-6-(6-ethoxypyridine-3-yl)-N'-((2-hydroxy-5-methoxypyridine-3-yl)methylene) pyrazine-2-carbohydrazide]
22 | < 500 | > 1000 | CCOc1ccc(-c2cncc(C(=O)N/N=C/c3cncc(OC)c3)n2)cn1 [Compound 18, (E)-6-(6-ethoxypyridine-3-yl)-N'-((5-methoxypyridine-3-yl)methylene)pyrazine-2-carbohydrazide]
23 | < 500 | 500 to 1000 | CCOc1ccc(-c2cccc(C(=O)N/N=C/c3cc(OC)cnc3F)n2)cn1 [Compound 71, (E) -6'-ethoxy-N'-((2-fluoro-5-methoxypyridine-3-yl)methylene)-[2,3'-bipyridine]-6-carbohydrazide]
24 | < 500 | > 1000 | CCOc1ccc(-c2cncc(C(=O)N/N=C/c3cc(OC4CC4)ccc3F)n2)cn1 [Compound 6, (E)-N'-(5-cyclopropoxy-2-fluorobenzylidene)-6-(6-ethoxypyridine-3-yl)pyrazine-2-carbohydrazide]
25 | > 1000 | > 1000 | CC[S+]([O-])c1ccc(-c2cncc(C(=O)N/N=C/c3cc(OC)ccc3F)n2)cn1 (stereo not drawn) [Compound 132, (E)-6-(6-(ethylsulfinyl)pyridine-3-yl)-N'-(2-fluoro-5-methoxybenzylidene)pyrazine-2-carbohydrazide]
26 | 500 to 1000 | > 1000 | COc1ccc(F)c(/C=N/NC(=O)c2cncc(-c3ccc([S+](C)[O-])nc3)n2)c1 (stereo not drawn) [Compound 131, (E)-N'-(2-fluoro-5-methoxybenzylidene)-6-(6-(methylsulfinyl)pyridine-3-yl)pyrazine-2-carbohydrazide]
27 | 500 to 1000 | > 1000 | CCOc1ccc(-c2cncc(C(=O)N/N=C/c3cc(OC)ccc3O)n2)cn1 [Compound 19, (E)-6-(6-ethoxypyridine-3-yl)-N'-(2-hydroxy-5-methoxybenzylidene)pyrazine-2-carbohydrazide]
